Results from PubChem BioAssay (NCI).
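Protocol summary: plate cells (96-well), add compound at 5 concentrations, incubate 48 h, interpolate endpoints linearly. Here, GI50 denotes the concentration required for 50% inhibition of growth. TGI: total growth inhibition.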

Assays:
Experiment in all cases: inhibition of tumour cell growth, NCI panel, 48 h
HCC-2998 colon = tested on: HCC-2998 colon
KM12 colon = tested on: KM12 colon
HCT-116 colon = tested on: HCT-116 colon
HL-60(TB) leukemia = tested on: HL-60(TB) leukemia
CCRF-CEM leukemia = tested on: CCRF-CEM leukemia
SK-MEL-5 melanoma = tested on: SK-MEL-5 melanoma
MDA-MB-231 breast = tested on: MDA-MB-231 breast
HS 578T breast = tested on: HS 578T breast
HOP-62 NSCLC = tested on: HOP-62 NSCLC
HOP-92 NSCLC = tested on: HOP-92 NSCLC

Structure (SMILES)	GI50 (HCC-2998 colon)	TGI (HCC-2998 colon)	GI50 (KM12 colon)	TGI (KM12 colon)	GI50 (HCT-116 colon)	TGI (HCT-116 colon)	GI50 (HL-60(TB) leukemia)	TGI (HL-60(TB) leukemia)	GI50 (CCRF-CEM leukemia)	TGI (CCRF-CEM leukemia)	GI50 (SK-MEL-5 melanoma)	TGI (SK-MEL-5 melanoma)	GI50 (MDA-MB-231 breast)	TGI (MDA-MB-231 breast)	GI50 (HS 578T breast)	TGI (HS 578T breast)	GI50 (HOP-62 NSCLC)	TGI (HOP-62 NSCLC)	GI50 (HOP-92 NSCLC)	TGI (HOP-92 NSCLC)
Cc1nn2c(/C=C3/C(=O)Nc4cc(Cl)ccc43)c(-c3ccccc3)nc2s1	> 100 µM	> 100 µM	59.1 µM	> 100 µM	1.85 µM	3.46 µM	> 100 µM	> 100 µM	4.35 µM	> 100 µM	3.17 µM	> 100 µM	1.99 µM	5.62 µM	3.52 µM	> 100 µM	4.4 µM	17.9 µM		
Cn1cc(-c2ccc3nnc(Sc4ccc5ncccc5c4)n3n2)cn1	> 100 µM	> 100 µM	> 100 µM	> 100 µM	53 µM	> 100 µM	> 100 µM	> 100 µM	51.6 µM	> 100 µM	> 74.3 µM	> 100 µM	24.4 µM	96.9 µM	10.4 µM	> 72.1 µM	30.9 µM	> 100 µM	7.07 µM	> 71.4 µM
CCCCCC[C@H](C)Nc1nc2ccccc2c2occc12	1.4 µM	8.94 µM	10.6 µM	32.3 µM	3.2 µM	13.3 µM	11.9 µM	37.8 µM	4.33 µM	21.1 µM	3.66 µM	18 µM	10.6 µM	24 µM	12.8 µM	37.7 µM	11.5 µM	23.9 µM	5.18 µM	20.2 µM
Cc1nc2c(n1C)C(=O)c1ccccc1C2=O	67.6 µM	> 100 µM	59.7 µM	> 100 µM	40 µM	> 100 µM	46.8 µM	> 100 µM	59.3 µM	> 100 µM	22 µM	85.2 µM	> 100 µM	> 100 µM	> 100 µM	> 100 µM	> 100 µM	> 100 µM	> 100 µM	> 100 µM
O=C(NCCc1ccccn1)OCc1nc2nc(Cl)nc(N3CCOCC3)c2[nH]1	1.74 µM	3.33 µM	2.63 µM	10.8 µM	0.816 µM	2.09 µM	1.83 µM	4.96 µM	2.18 µM	9.74 µM	2.1 µM	4.54 µM	1.6 µM	3.17 µM	2.71 µM	9.77 µM	2.37 µM	12.6 µM	1.15 µM	3.81 µM
O=c1/c(=C\c2ccc(F)cc2)sc2n1C(c1ccc(F)cc1)C1=C(N=2)c2ccc3ccccc3c2OCC1 (stereo not given)	> 100 µM	> 100 µM	> 89.8 µM	> 100 µM	> 100 µM	> 100 µM	> 100 µM	> 100 µM	> 100 µM	> 100 µM	> 100 µM	> 100 µM	> 100 µM	> 100 µM	> 100 µM	> 100 µM	> 100 µM	> 100 µM		> 100 µM
Cc1c(-c2ccnc(N)n2)c2c(n1Cc1ccccc1)C(=O)c1ccccc1C2=O	12.9 µM	35.8 µM	8.82 µM	30.4 µM	3.7 µM	16.6 µM			> 100 µM	> 100 µM	12.8 µM	27.8 µM	1.73 µM	30.2 µM	2.62 µM	8.05 µM	13.9 µM	43.6 µM	> 100 µM	> 100 µM
COc1cc(NC(=O)CCSc2nc3ccc(C)cc3c(=O)n2Cc2ccccc2)cc(OC)c1OC	> 100 µM	> 100 µM	> 100 µM	> 100 µM	4.35 µM	> 100 µM			> 100 µM	> 100 µM	32.4 µM	> 100 µM	4.2 µM	52.8 µM	2.18 µM	6.74 µM	2.94 µM	9.47 µM	1.9 µM	7.99 µM
COc1cc2c(cc1OCCCCCCN1CCN(CC(=O)Nc3ccc(Cl)cc3C(=O)c3ccccc3Cl)CC1)N=CC1CCCN1C2=O (stereo not given)	0.173 µM	0.314 µM			0.183 µM	0.481 µM	0.244 µM				0.513 µM	0.942 µM	0.383 µM	1.07 µM	0.243 µM	0.589 µM	0.146 µM	0.294 µM	0.177 µM	0.396 µM
C1CC[N-]CC1.CC(=N\O)/C(C)=N/O.CC(=N\O)/C(C)=N/O.OC1[CH-]CCCC1.[Co+2]			> 100 µM	> 100 µM	30.3 µM	> 100 µM	21.7 µM	72.5 µM			34.6 µM	> 100 µM	> 100 µM	> 100 µM	22.8 µM	63 µM	> 100 µM	> 100 µM	22.2 µM	93.1 µM
NCCOCCOCCNc1nc(-c2ccc(Cl)cc2)nc(N2CCN(c3ccccn3)CC2)n1	1.75 µM	3.29 µM	1.84 µM	3.5 µM	1.75 µM	3.22 µM	2.12 µM	4.15 µM			1.71 µM	3.19 µM	2.55 µM	6.01 µM	1.92 µM	4.6 µM			2.36 µM	7.57 µM
C1CC2CN(CCCN3CCOCC3)C(C1)O2 (stereo not given)				> 100 µM		> 100 µM		> 100 µM				> 100 µM		> 100 µM		> 100 µM		> 100 µM		> 100 µM
CN(C)CCSS(=O)(=O)O				> 100 µM		> 100 µM		> 100 µM		> 100 µM		> 100 µM		> 100 µM		> 100 µM		> 100 µM		> 100 µM
Cn1cc(C2=C(c3cn(C)c4ccc(Cl)cc34)C(=O)NC2=O)c2ccccc21	6.76 µM	> 23.9 µM	2.38 µM	10.4 µM	1.52 µM	7.42 µM	1.4 µM	8.82 µM	1.18 µM	19.2 µM	3.47 µM	8.28 µM	6.69 µM	> 25 µM	2.11 µM	> 23.9 µM	3.79 µM	17.8 µM		
